Reference: patent US20240116946A1 (Gilead Sciences, Inc., priority 2022, published 2024)
Where two headings read alike, the source gives them in different places.

Legend:
[1] = target: recombinant SARS-CoV-2 Main protease (Mpro) (Severe acute respiratory syndrome coronavirus 2 (2019-nCoV) (SARS-CoV-2), UniProt P0DTD1); experiment: Cov Mpro Biochemical IC50 Assay; conditions: read-out: MPro IC50
SARS-CoV-2-NLuc = experiment: microbe, parasite or virus in culture; format: cell-based, SARS Coronavirus 2
[2] = recombinant SARS-CoV-2 Mpro 7.5 nM, fluorogenic peptide substrate 40 μM
[3] = Severe acute respiratory syndrome coronavirus, 48 h, read-out: MPro EC50
[4] = recombinant SARS-CoV-2 Mpro, fluorogenic peptide substrate
[5] = Severe acute respiratory syndrome coronavirus, 48 h; read-out: MPro EC50

Structure (SMILES) | IC50 [1, 2] | EC50 (SARS-CoV-2-NLuc; read-out: MPro EC50) | EC50 (SARS-CoV-2-NLuc; [3]) | IC50 [1, 4] | EC50 (SARS-CoV-2-NLuc; [5])
COc1cc(-c2cc3[nH]c(=O)n(-c4cncc5ccccc45)c(=O)c3s2)c(Cl)cc1F (single isomer, unassigned) [Example 556, 6-(2-chloro-4-fluoro-5-methoxyphenyl)-3-(isoquinolin-4-yl)thieno[3,2-d]pyrimidine-2,4(1H,3H)-dione] | 3.41 nM | 2.04 nM |  |  | 
COc1cc(-c2cc3[nH]c(=O)n(-c4cnnc(C)c4)c(=O)c3s2)c(Cl)cc1F [Example 714] | > 1000 nM |  | > 1000 nM |  | 
CN1CCOc2cc(-c3cccc(Cl)c3-c3ccc4c(=O)n(-c5cncc6ccccc56)c(=O)[nH]c4c3)ccc21 [Example 314] |  |  | 72.9 nM | 456 nM | 
N#Cc1cncc(-c2cccc(Cl)c2-c2ccc3c(=O)n(-c4cncc5ccccc45)c(=O)[nH]c3c2)c1 [Example 298] |  |  | 10.8 nM | 6.29 nM | 
N#Cc1ccccc1-c1cc(F)c2c(=O)n(-c3cncc4ccccc34)c(=O)[nH]c2c1 [Example 223] |  |  |  | 101 nM | 414 nM
COc1cc(-c2cc3c(s2)c(=O)n(-c2cncc4nc(C(F)(F)F)n(C)c24)c(=O)n3CCC#N)c(Cl)cc1F (single isomer, unassigned) [Example 974, 3-(6-(2-chloro-4-fluoro-5-methoxyphenyl)-3-(1-methyl-2-(trifluoromethyl)-1H-imidazo[4,5-c]pyridin-7-yl)-2,4-dioxo-3,4-dihydrothieno[3,2-d]pyrimidin-1(2H)-yl)propanenitrile] | 242 nM | 602 nM |  |  | 
COc1ccc(C#N)c(-c2cc3[nH]c(=O)n(-c4cncc(C)c4OCC(F)(F)F)c(=O)c3s2)c1 [Example 225] |  |  | 87.7 nM | 12.1 nM | 
COc1ccc(Cl)c(-c2cc3[nH]c(=O)n(-c4cncc5cccc(Cl)c45)c(=O)c3s2)c1 [Example 601] | < 2.54 nM |  | 14.7 nM |  | 
Cn1nncc1-c1cccc(Cl)c1-c1ccc2c(=O)n(-c3cncc4ccccc34)c(=O)[nH]c2c1 [Example 567, 7-[2-chloro-6-(3-methyltriazol-4-yl)phenyl]-3-(4-isoquinolyl)-1H-quinazoline-2,4-dione] | 50.9 nM | 228 nM |  |  | 
COc1cc(-c2cc3[nH]c(=O)n(-c4cncc5cc(C#N)sc45)c(=O)c3s2)c(Cl)cc1F [Example 1011, 7-[6-(2-chloro-4-fluoro-5-methoxy-phenyl)-2,4-dioxo-1H-thieno[3,2-d]pyrimidin-3-yl]thieno[3,2-c]pyridine-2-carbonitrile] | 14.5 nM |  | 81.2 nM |  | 
COc1cc(-c2cc3[nH]c(=O)n(-c4cncc5nc(C)sc45)c(=O)c3s2)c(Cl)cc1F [Example 652] | 22.5 nM |  | 48.1 nM |  | 
O=c1[nH]c2cc(-c3ccccc3Cl)sc2c(=O)n1-c1cncc(C(F)(F)F)c1 [Example 576, 6-(2-chlorophenyl)-3-(5-(trifluoromethyl)pyridin-3-yl)thieno[3,2-d]pyrimidine-2,4(1H,3H)-dione] | 174 nM |  |  |  | 153 nM
Cc1cc(C#N)c(-c2cc3c(s2)c(=O)n(-c2cncc4cnn(C)c24)c(=O)n3CCC#N)cc1F [Example 786] | 27.9 nM |  | 165 nM |  | 
Cc1noc(C)c1-c1cc2c(s1)c(=O)n(-c1cncc3cnn(C)c13)c(=O)n2CCC#N [Example 930] | 541 nM |  | > 1000 nM |  | 
COc1cc(-c2cc3c(s2)c(=O)n(-c2cncc(F)c2)c(=O)n3CCC#N)c(Cl)cc1F [Example 986] | 2.37 nM |  | 4.39 nM |  | 
COc1cc(-c2cc3c(s2)c(=O)n(-c2cncc4ccsc24)c(=O)n3CC#N)c(Cl)cc1F [Example 653] | 2.58 nM |  | 4.45 nM |  | 
Cc1cncc(-n2c(=O)c3sc(-c4ccccc4C#N)cc3n(CCC#N)c2=O)c1 [Example 875] | 9.81 nM |  |  |  | 32.4 nM
O=c1[nH]c2cc(-c3ccccc3Cl)ccc2c(=O)n1-c1cnccc1N1CCOCC1 [Example 128] |  |  |  | 510 nM | 1320 nM
COc1ccc(Cl)c(-c2ccc3c(=O)n(-c4cncc5cccnc45)c(=O)[nH]c3c2)c1 [Example 462, 7-(2-chloro-5-methoxyphenyl)-3-(1,6-naphthyridin-8-yl)quinazoline-2,4(1H,3H)-dione] | 28.4 nM |  | 61.5 nM |  | 
COc1cc(-c2cc3c(s2)c(=O)n(-c2cncc4ccccc24)c(=O)n3Cc2ncn(C)n2)c(Cl)cc1F [Example 689] | 32 nM |  | 30 nM |  | 

Structure (SMILES) | IC50 [1, 2] | EC50 (SARS-CoV-2-NLuc; read-out: MPro EC50) | EC50 (SARS-CoV-2-NLuc; [3]) | IC50 [1, 4] | EC50 (SARS-CoV-2-NLuc; [5])
Cc1nn(C2CCNCC2)cc1-c1cccc(Cl)c1-c1ccc2c(=O)n(-c3cncc4ccccc34)c(=O)[nH]c2c1 [Example 472, 7-[2-chloro-6-[3-methyl-1-(4-piperidyl)pyrazol-4-yl]phenyl]-3-(4-isoquinolyl)-1H-quinazoline-2,4-dione] | 5.11 nM |  | 188 nM |  | 
COc1ccc(Cl)c(-c2cc3[nH]c(=O)n(-c4cncc5ccc(N6CCOCC6)nc45)c(=O)c3s2)c1 [Example 457] | < 2.54 nM |  | < 6.04 nM |  | 
COc1ccc(Cl)c(-c2cc3[nH]c(=O)n(-c4cncc5c4ccn5C)c(=O)c3s2)c1 [Example 489] | 2.63 nM |  | 20.4 nM |  | 
O=c1[nH]c2cc(-c3c(Cl)cccc3-c3cn(CC(F)F)nn3)ccc2c(=O)n1-c1cncc2ccccc12 [Example 292] |  |  | 169 nM | 120 nM | 
Cn1ncc2cncc(-n3c(=O)c4sc(C5C(Cl)=CC(Cl)=C6OCCC65)cc4n(CCC#N)c3=O)c21 (centres unmarked) [Example 1021] | 15.5 nM |  | 37.2 nM |  | 
Cc1cccc(C#N)c1-c1ccc2c(=O)n(-c3cncc4ccccc34)c(=O)[nH]c2c1 [Example 96] |  |  | 296 nM | 151 nM | 
COc1cncc(-n2c(=O)c3sc(-c4ccccc4Cl)cc3n(CCC#N)c2=O)c1 [Example 836] | 21.7 nM |  |  |  | 40.5 nM
O=c1[nH]c2cc(-c3ccccc3Cl)sc2c(=O)n1-c1cnccc1N1CCNCC1 [Example 115, 6-(2-chlorophenyl)-3-(4-(piperazin-1-yl)pyridin-3-yl)thieno[3,2-d]pyrimidine-2,4(1H,3H)-dione] |  |  |  | 522 nM | 1530 nM
COc1cc(-c2cc3c(s2)c(=O)n(-c2cncc(C)c2C)c(=O)n3CCC#N)c(Cl)cc1F [Example 932] | 5.33 nM |  | 2.42 nM |  | 
COc1ccc(Cl)c(-c2cc3[nH]c(=O)n(-c4cncc5cc(C(C)(C)O)sc45)c(=O)c3s2)c1 [Example 512, 6-(2-chloro-5-methoxy-phenyl)-3-[2-(1-hydroxy-1-methyl-ethyl)thieno[3,2-c]pyridin-7-yl]-1H-thieno[3,2-d]pyrimidine-2,4-dione] | 5.71 nM |  | 26.9 nM |  | 
O=c1[nH]c2cc(-c3c(Cl)cc(Cl)c4c3CCO4)sc2c(=O)n1-c1cncc2ccccc12 [Example 647] | 10.9 nM |  | 25.9 nM |  | 
CS(=O)(=O)N1CC2(CN(c3ccc4cncc(-n5c(=O)[nH]c6cc(-c7ccccc7Cl)sc6c5=O)c4c3)C2)C1 [Example 424] | 11.3 nM |  | 55.8 nM |  | 
COc1cc(-c2cc3c(s2)c(=O)n(-c2cncc4cc(F)ccc24)c(=O)n3CCC#N)c(Cl)cc1F [Example 951] | 9.45 nM |  | 5.38 nM |  | 
COc1ccc(Cl)c(-c2ccc3c(=O)n(-c4cncc5ccccc45)c(=O)[nH]c3c2)c1F [Example 322] |  |  | 1300 nM | 3530 nM | 
COc1cnc(Cl)c(-c2cc3c(s2)c(=O)n(-c2cncc4ccccc24)c(=O)n3CCC#N)c1 (single isomer, unassigned) [Example 1089, 3-(6-(2-chloro-5-methoxypyridin-3-yl)-3-(isoquinolin-4-yl)-2,4-dioxo-3,4-dihydrothieno[3,2-d]pyrimidin-1(2H)-yl)propanenitrile] | > 1000 nM | > 1000 nM |  |  | 
Cc1nc2cncc(-n3c(=O)c4sc(-c5ccc(F)cc5Cl)cc4n(CCC#N)c3=O)c2n1C (single isomer, unassigned) [Example 965, 3-(6-(2-chloro-4-fluorophenyl)-3-(1,2-dimethyl-1H-imidazo[4,5-c]pyridin-7-yl)-2,4-dioxo-3,4-dihydrothieno[3,2-d]pyrimidin-1(2H)-yl)propanenitrile] | 20.1 nM | 78.3 nM |  |  | 
COc1cc(-c2cc3c(s2)c(=O)n(-c2cncc4cccc(F)c24)c(=O)n3CC#N)c(Cl)cc1F [Example 703] | 3.58 nM |  | 3.74 nM |  | 
COc1ccc(Cl)c(-c2cc3[nH]c(=O)n(-c4cncc5cccc(C)c45)c(=O)c3s2)c1 [Example 559] | 6.23 nM |  | 9.19 nM |  | 
O=c1[nH]c2cc(-c3c(Cl)cccc3-c3cc(C(F)(F)F)c4ncnn4c3)ccc2c(=O)n1-c1cncc2ccccc12 [Example 145] |  |  |  | 23.9 nM | 43 nM
Cn1ncc2cncc(-n3c(=O)c4sc(-c5ccc(C(F)(F)F)cc5C#N)cc4n(CCC#N)c3=O)c21 [Example 775] | 600 nM |  | > 1000 nM |  | 
